Test system: MCF-7 breast cancer cells
Test: Microarray gene expression analysis (Agilent whole human genome 4 x 44K; compound vs DMSO, LIMMA log2 fold change)
Format: cell-based
Conditions: Apoptosis genes

Oc1cccc(-c2nc(N3CCOCC3)c3oc4ncccc4c3n2)c1 [PI-103]
ITGB3BP log2FC (Gene 23421): 0.693
RYBP log2FC (Gene 23429): 0.361
HEY2 log2FC (Gene 23493): -0.116
SCRIB log2FC (Gene 23513): 0.029
CLCF1 log2FC (Gene 23529): -0.682
PRAME log2FC (Gene 23532): -0.450
DDAH2 log2FC (Gene 23564): 0.378
ZNF346 log2FC (Gene 23567): -0.012
CASP14 log2FC (Gene 23581): -0.041
NUP62 log2FC (Gene 23636): -0.627
PPP1R15A log2FC (Gene 23645): 0.513
AIPL1 log2FC (Gene 23746): 0.177
FKBP8 log2FC (Gene 23770): 0.044
BCL2L13 log2FC (Gene 23786): 0.110
MTCH1 log2FC (Gene 23787): 0.149
NGEF log2FC (Gene 25791): 0.857
SPDEF log2FC (Gene 25803): -0.186
TNFAIP8 log2FC (Gene 25816): 0.677
PRDX5 log2FC (Gene 25824): 0.047
BRMS1 log2FC (Gene 25855): -0.476
SIN3A log2FC (Gene 25942): 0.891
HIGD1A log2FC (Gene 25994): -0.106
SERBP1 log2FC (Gene 26135): 0.167
NOC2L log2FC (Gene 26155): -0.855
TIAM2 log2FC (Gene 26230): 0.365
AATF log2FC (Gene 26574): -0.415
GREM1 log2FC (Gene 26585): -0.405
CKAP2 log2FC (Gene 26586): 0.629
CYFIP2 log2FC (Gene 26999): 0.053
NGFRAP1 log2FC (Gene 27018): 0.277
ANKRD1 log2FC (Gene 27063): 0.350
GHITM log2FC (Gene 27069): 0.386
BBC3 log2FC (Gene 27113): 2.072
CIDEB log2FC (Gene 27141): -0.033
GLS2 log2FC (Gene 27165): 0.410
TNFRSF21 log2FC (Gene 27242): -1.071
PDCD4 log2FC (Gene 27250): 1.703
KLHL20 log2FC (Gene 27252): 0.115
CECR2 log2FC (Gene 27443): -0.150
DBNL log2FC (Gene 28988): -0.248
HIPK2 log2FC (Gene 28996): -0.140
SAP30BP log2FC (Gene 29115): -0.468
LGALS13 log2FC (Gene 29124): -0.059
CARD10 log2FC (Gene 29775): -0.449
SENP1 log2FC (Gene 29843): 0.227
TFPT log2FC (Gene 29844): -0.472
PNMA3 log2FC (Gene 29944): 0.668
UBQLN1 log2FC (Gene 29979): -0.069
ERO1L log2FC (Gene 30001): 0.078
SH3KBP1 log2FC (Gene 30011): 0.268
KCNIP3 log2FC (Gene 30818): 0.232
RRM2B log2FC (Gene 50484): 0.526
G0S2 log2FC (Gene 50486): -0.054
NOX4 log2FC (Gene 50507): 0.041
CHST11 log2FC (Gene 50515): -0.946
ARHGEF4 log2FC (Gene 50649): 0.008
ARHGEF3 log2FC (Gene 50650): 0.506
GLRX2 log2FC (Gene 51022): -0.261
RPS27L log2FC (Gene 51065): 0.277
APIP log2FC (Gene 51074): 0.039
NDUFA13 log2FC (Gene 51079): -0.041
GAL log2FC (Gene 51083): -0.333
SH3GLB1 log2FC (Gene 51100): 0.561
APH1A log2FC (Gene 51107): -0.371
UTP11L log2FC (Gene 51118): -0.906
IER3IP1 log2FC (Gene 51124): 0.357
ANGPTL4 log2FC (Gene 51129): -0.819
ING4 log2FC (Gene 51147): 1.595
LEF1 log2FC (Gene 51176): -0.888
BFAR log2FC (Gene 51283): 0.201
PLAC8 log2FC (Gene 51316): -0.057
TNFRSF12A log2FC (Gene 51330): -0.619
ANGPT4 log2FC (Gene 51378): 0.049
DDX41 log2FC (Gene 51428): -0.065
GULP1 log2FC (Gene 51454): 1.663
TRIAP1 log2FC (Gene 51499): -0.858
ZC3HC1 log2FC (Gene 51530): 0.156
PIAS4 log2FC (Gene 51588): -0.121
PIGT log2FC (Gene 51604): 0.362
TAF9B log2FC (Gene 51616): 0.327
PTRH2 log2FC (Gene 51651): -0.374
WWOX log2FC (Gene 51741): -0.808
SIX4 log2FC (Gene 51804): 0.497
IL20RA log2FC (Gene 53832): 0.039
CYCS log2FC (Gene 54205): -0.602
WNT4 log2FC (Gene 54361): -0.419
DNAJC10 log2FC (Gene 54431): 0.610
ZFAND6 log2FC (Gene 54469): 0.333
ADAMTSL4 log2FC (Gene 54507): -0.373
DDIT4 log2FC (Gene 54541): -1.201
ING3 log2FC (Gene 54556): 0.724
RRN3 log2FC (Gene 54700): -0.333
AHI1 log2FC (Gene 54806): 0.380
QRICH1 log2FC (Gene 54870): 0.076
TMEM161A log2FC (Gene 54929): -0.337
PHIP log2FC (Gene 55023): 1.071
USP47 log2FC (Gene 55031): 0.614
OXR1 log2FC (Gene 55074): 0.376
UACA log2FC (Gene 55075): 0.829
IFT57 log2FC (Gene 55081): 0.433
XKR8 log2FC (Gene 55113): 0.252
SHQ1 log2FC (Gene 55164): -0.188
FAIM log2FC (Gene 55179): 0.119
MAP1S log2FC (Gene 55201): -0.149
ATAD3A log2FC (Gene 55210): -0.126
STEAP3 log2FC (Gene 55240): -0.441
RHOT1 log2FC (Gene 55288): 0.535
RFK log2FC (Gene 55312): 0.631
PARL log2FC (Gene 55486): -0.181
TNFRSF19 log2FC (Gene 55504): -0.091
CCAR1 log2FC (Gene 55749): 0.552
PCID2 log2FC (Gene 55795): 0.323
RNF130 log2FC (Gene 55819): 0.00747
EAF2 log2FC (Gene 55840): 0.144
PSENEN log2FC (Gene 55851): -0.013
BCAP29 log2FC (Gene 55973): 0.083
TEX11 log2FC (Gene 56159): 0.000672
CTNNBL1 log2FC (Gene 56259): -0.138
DIABLO log2FC (Gene 56616): -0.156
ASAH2 log2FC (Gene 56624): -0.210
TRIM39 log2FC (Gene 56658): -0.128
BARHL1 log2FC (Gene 56751): -0.298
FMN2 log2FC (Gene 56776): 0.00262
SPHK2 log2FC (Gene 56848): -0.341
C8orf4 log2FC (Gene 56892): 0.00123
MEIS3 log2FC (Gene 56917): -0.122
DUSP22 log2FC (Gene 56940): 0.209
CIAPIN1 log2FC (Gene 57019): -0.420
PCBP4 log2FC (Gene 57060): -0.275
AVEN log2FC (Gene 57099): -0.638
CAMK1D log2FC (Gene 57118): -0.189
RTN4 log2FC (Gene 57142): -0.088
PAK7 log2FC (Gene 57144): 0.451
BIRC6 log2FC (Gene 57448): 0.144
TAOK1 log2FC (Gene 57551): 0.399
SEMA6A log2FC (Gene 57556): 0.047
SH3RF1 log2FC (Gene 57630): -0.495
USP28 log2FC (Gene 57646): 0.030
GPAM log2FC (Gene 57678): -0.052
CHD8 log2FC (Gene 57680): -0.161
TRIB3 log2FC (Gene 57761): 0.076
NGB log2FC (Gene 58157): -0.260
RBM25 log2FC (Gene 58517): 0.334
SAV1 log2FC (Gene 60485): 0.586
PROK2 log2FC (Gene 60675): -0.058
ELMO2 log2FC (Gene 63916): 0.585
CIDEC log2FC (Gene 63924): 0.292
FIGNL1 log2FC (Gene 63979): -0.235
PERP log2FC (Gene 64065): 0.731
MOAP1 log2FC (Gene 64112): 0.507
RRAGC log2FC (Gene 64121): 1.556
IFIH1 log2FC (Gene 64135): 0.872
ZMAT3 log2FC (Gene 64393): -0.151
ATG3 log2FC (Gene 64422): 0.194
SUDS3 log2FC (Gene 64426): -0.027
MICAL1 log2FC (Gene 64780): -0.125
PLEKHG2 log2FC (Gene 64857): -0.516

From paper PMC4303209, “A novel phosphatidylinositol 3-kinase (PI3K) inhibitor directs a potent FOXO-dependent, p53-independent cell cycle arrest phenotype characterized by the differential induction of a subset of FOXO-regulated genes” (Breast Cancer Research : BCR, 2014)
